pKi: −log10 of the molar value.
target: T1, Adenosine receptor A1 (Rattus norvegicus, UniProt P25099); experiment: Displacement of [3H]DPCPX from adenosine A1 receptor in rat brain cortex membrane; assay type: cell membranes
T1 sequence (P25099 whole entry): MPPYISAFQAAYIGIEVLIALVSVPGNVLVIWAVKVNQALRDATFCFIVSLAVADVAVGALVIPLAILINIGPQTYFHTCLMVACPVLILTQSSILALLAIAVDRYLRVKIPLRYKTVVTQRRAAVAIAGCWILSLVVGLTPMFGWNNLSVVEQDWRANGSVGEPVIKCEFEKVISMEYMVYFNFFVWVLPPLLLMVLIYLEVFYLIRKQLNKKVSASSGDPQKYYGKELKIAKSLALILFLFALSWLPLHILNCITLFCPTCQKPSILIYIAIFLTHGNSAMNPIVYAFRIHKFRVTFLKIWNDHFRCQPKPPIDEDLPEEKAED

SMILES | pKi
CC(=O)Cc1cc(O)cc2oc(CO)cc(=O)c12 | < 4.30
CC(=O)Cc1cc(O)cc2oc(C)cc(=O)c12 | < 4.30
CC(=O)[C@@H]1c2cc(O)cc(O)c2C(=O)C[C@]1(C)O (relative stereo) | < 4.30
CC(=O)[C@@H]1c2cc(O)cc(O)c2C(=O)C[C@@]1(C)O (relative stereo) | < 4.30
O=c1cc(-c2ccc(O)c(O)c2)oc2cc(O)cc(O)c12 [LUTEOLIN] | 5.78

target: T1, Adenosine receptor A1; experiment: Displacement of [3H]DPCPX from adenosine A1 receptor in rat brain cortex membrane in presence of 0.5 mM GTP; assay type: cell membranes

SMILES | pKi
O=c1cc(-c2ccc(O)c(O)c2)oc2cc(O)cc(O)c12 [LUTEOLIN] | 5.81

From ChEMBL document CHEMBL1155686, “Luteolin, a compound with adenosine A(1) receptor-binding activity, and chromone and dihydronaphthalenone constituents from Senna siamea” (J Nat Prod, 2000)
